# Measurements: patent publication US7265130B2, “NPY Y5 antagonist” (Shionogi & Co., Ltd., priority 1999, dated 2007)
# Experiments:
# [1] = target: T1, NPY Y1 receptor (Homo sapiens, UniProt P25929); test: Affinity for NPY Y1 receptor (membranes from SK-N-MC cells); settings: membranes from Y1-expression cells (human neuroblastoma, SK-N-MC); read-out: Binding IC50 for NPY Y1 receptor
# T1 construct: membranes prepared from Y1-expression cells (human neuroblastoma, SK-N-MC); endogenous in cells; host or cells: SK-N-MC human neuroblastoma cells (membranes)
# T1 sequence (P25929 1-384): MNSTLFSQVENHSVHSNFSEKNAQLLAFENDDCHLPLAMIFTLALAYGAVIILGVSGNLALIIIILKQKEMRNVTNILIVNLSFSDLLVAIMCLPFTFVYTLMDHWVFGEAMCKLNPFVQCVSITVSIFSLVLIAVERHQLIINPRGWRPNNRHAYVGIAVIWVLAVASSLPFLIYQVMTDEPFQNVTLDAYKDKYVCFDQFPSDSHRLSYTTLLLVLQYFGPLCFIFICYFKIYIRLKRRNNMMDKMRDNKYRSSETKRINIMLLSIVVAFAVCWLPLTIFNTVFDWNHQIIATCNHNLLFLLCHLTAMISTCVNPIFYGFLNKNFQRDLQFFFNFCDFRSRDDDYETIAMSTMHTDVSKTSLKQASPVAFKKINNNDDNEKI
# Experimental: (§1) The membranes prepared from the above CHO cells expressing NPY Y5 receptor, the compound of the present invention and 30,000 cpm [^125I] peptide YY (60 pM of final concentration: Amersham) were incubated in the assay buffer (20 mM HEPES-Hanks buffer containing 0.1% bovine serum albumin, pH 7.4) at 25° C. for 2 hours, and then the mixture was filtered with a glassfilter GF/C treated with polyethyleneimine. After the glassfilter was washed with 50 mM Tris-HCl buffer (pH 7.4), the radioactivity on the filter was measured with a gamma counter. The non-specific binding was detected in the presence of 200 nM of peptide YY. The 50% inhibitory concentration of the test compound against the specific peptide YY binding (IC50 value) was calculated (Inui, A. et al. Endocrinology 131, 2090-2096 (1992)).
# (§2) Using the membranes prepared from Y1-expression cells (human neuroblastoma, SK-N-MC) and the membranes prepared from Y2-expression cells (human neuroblastoma, SMS-KAN), the experiment was carried out in a similar way as Experiment 1 to determine the affinity for NPY Y1 receptor and NPY Y2 receptor.
# [2] = target: T2, NPY Y2 receptor (Homo sapiens, UniProt P49146); test: Affinity for NPY Y2 receptor (membranes from SMS-KAN cells); settings: membranes from Y2-expression cells (human neuroblastoma, SMS-KAN); read-out: Binding IC50 for NPY Y2 receptor
# T2 construct: membranes prepared from Y2-expression cells (human neuroblastoma, SMS-KAN); endogenous in cells; host or cells: SMS-KAN human neuroblastoma cells (membranes)
# T2 sequence (P49146 1-381): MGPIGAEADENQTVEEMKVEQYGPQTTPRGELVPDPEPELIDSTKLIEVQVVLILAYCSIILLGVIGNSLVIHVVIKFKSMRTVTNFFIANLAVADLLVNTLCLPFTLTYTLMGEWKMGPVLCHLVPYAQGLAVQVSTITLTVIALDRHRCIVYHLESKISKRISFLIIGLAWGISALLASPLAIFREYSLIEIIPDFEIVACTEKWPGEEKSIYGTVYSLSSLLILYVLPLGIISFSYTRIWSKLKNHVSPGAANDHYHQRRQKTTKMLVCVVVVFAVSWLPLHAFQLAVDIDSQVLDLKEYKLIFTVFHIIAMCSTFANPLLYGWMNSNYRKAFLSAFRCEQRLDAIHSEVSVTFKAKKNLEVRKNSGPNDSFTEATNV
# Experimental: as §1, §2
# [3] = target: T3, human NPY Y5 receptor (Homo sapiens, UniProt Q15761); test: Affinity for NPY Y5 receptor ([125I] peptide YY binding, CHO cell membranes); settings: inhibition of specific [125I] peptide YY binding, membranes of CHO cells expressing NPY Y5 receptor
# T3 construct: expressed in transfected cells
# T3 sequence (Q15761 1-445): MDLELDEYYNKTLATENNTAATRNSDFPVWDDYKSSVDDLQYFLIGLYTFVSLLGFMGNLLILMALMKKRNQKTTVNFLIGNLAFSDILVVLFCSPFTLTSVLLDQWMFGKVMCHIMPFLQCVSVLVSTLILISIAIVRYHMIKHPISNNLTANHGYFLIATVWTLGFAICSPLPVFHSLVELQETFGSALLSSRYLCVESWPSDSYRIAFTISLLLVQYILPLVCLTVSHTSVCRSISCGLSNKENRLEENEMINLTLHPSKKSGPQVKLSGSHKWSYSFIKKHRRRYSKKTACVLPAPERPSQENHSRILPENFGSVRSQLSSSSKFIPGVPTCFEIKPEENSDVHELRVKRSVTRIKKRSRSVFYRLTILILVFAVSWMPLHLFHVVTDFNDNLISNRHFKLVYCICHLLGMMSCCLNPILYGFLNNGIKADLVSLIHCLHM
# How it was run: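 IC50 is inhibition of specific [125I] peptide YY binding (60 pM final; non-specific defined by 200 nM peptide YY), read by gamma counting after filtration. Binding used stably transfected CHO-cell membranes with compound, 2 hours at 25° C, pH 7.4 HEPES-Hanks/0.1% BSA.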
# [4] = target: T3, human NPY Y5 receptor; test: cAMP production inhibitory activity in CHO cells; type: cell-based; settings: against 50 nM NPY inhibition of forskolin stimulated cAMP, CHO cells expressing human NPY Y5 receptor
# How it was run: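 Supernatant cAMP quantified by EIA after HCl stop, following 30 min stimulation with 10 μM forskolin and 50 nM NPY. Compound was added 5 min before stimulation to human NPY Y5-expressing CHO cells pretreated 20 min at 37 °C with 2.5 mM isobutylmethylxanthine.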
SMILES,IC50 [1] [nM],IC50 [2] [nM],IC50 [3] [nM],IC50 [4] [nM]
CCCCc1ccc(NC(=O)CCCNS(=O)(=O)C(C)(C)C)cc1 [Compound I-27],≥ 100000,≥ 100000,,
CCCCc1ccc(C(=O)NC2CCC(NS(=O)(=O)C(C)(C)C)CC2)cc1 (centres unmarked) [Compound I-32],≥ 100000,≥ 100000,,
CC(C)(C)S(=O)(=O)NC1CCC(C(=O)Nc2ccc(N3CCOCC3)cc2)CC1 (centres unmarked) [Compound I-41],≥ 100000,≥ 100000,5.3,38.2
CC(C)(C)S(=O)(=O)NC1CCC(C(=O)Nc2ccc(N3CCCCC3)cc2)CC1 (centres unmarked) [Compound I-45],≥ 100000,≥ 100000,1.2,27.9
CCn1c2ccccc2c2cc(NC(=O)C3CCC(NS(=O)(=O)C(C)(C)C)CC3)ccc21 (centres unmarked) [Compound I-46],≥ 100000,≥ 100000,0.8,10.5
CC(C)(C)S(=O)(=O)NC1CCC(C(=O)Nc2ccc(I)cc2)CC1 (centres unmarked) [Compound I-47],≥ 100000,≥ 100000,0.6,14.9
CC(C)(C)S(=O)(=O)NC1CCC(C(=O)Nc2ccc(F)cc2)CC1 (centres unmarked) [Compound I-48],≥ 100000,≥ 100000,,
CC(C)(C)S(=O)(=O)NC1CCC(C(=O)Nc2ccc(N3CCCC3)cc2)CC1 (centres unmarked) [Compound I-49],≥ 100000,≥ 100000,0.4,8.1
CC(C)(C)S(=O)(=O)NC1CCC(C(=O)Nc2ccc(N3CC=CCC3)cc2)CC1 (centres unmarked) [Compound I-59],≥ 100000,≥ 100000,0.8,35
CC(C)(C)S(=O)(=O)NC1CCC(C(=O)Nc2ccc(-n3cccc3)cc2)CC1 (centres unmarked) [Compound I-61],≥ 100000,≥ 100000,0.26,5.3
CC(C)(C)S(=O)(=O)NC1CCC(C(=O)Nc2ccc(Br)cc2)CC1 (centres unmarked) [Compound I-63],≥ 100000,≥ 100000,1.3,50
CC(C)(C)S(=O)(=O)NC1CCC(C(=O)Nc2ccc3c(c2)OCO3)CC1 (centres unmarked) [Compound I-64],≥ 100000,≥ 100000,2.2,80
Cc1cc(=O)oc2cc(NC(=O)C3CCC(NS(=O)(=O)C(C)(C)C)CC3)ccc12 (centres unmarked) [Compound I-66],≥ 100000,≥ 100000,1.5,30
CN(C)c1cccc(NC(=O)C2CCC(NS(=O)(=O)C(C)(C)C)CC2)c1 (centres unmarked) [Compound I-69],≥ 100000,≥ 100000,3.8,13
C[C@@H]1CN(c2ccc(NC(=O)[C@H]3CC[C@H](NS(=O)(=O)C(C)(C)C)CC3)cc2)C[C@H](C)O1 [Compound I-72],≥ 100000,≥ 100000,2.3,2.1
CC(C)(C)S(=O)(=O)NC1CCC(C(=O)NCCSc2cc(C(F)(F)F)nc3ccccc23)CC1 (centres unmarked) [Compound I-152],≥ 100000,≥ 100000,0.88,46
CC(C)(C)S(=O)(=O)NC1CCC(C(=O)NCc2cccc3ccccc23)CC1 (centres unmarked) [Compound I-154],≥ 100000,≥ 100000,1.1,11
CC(C)(C)S(=O)(=O)NC1CCC(C(=O)Nc2ccc3c(c2)CCC3)CC1 (centres unmarked) [Compound I-204],≥ 100000,≥ 100000,1,6.3
CC(C)NC(=O)c1cccc(NC(=O)C2CCC(NS(=O)(=O)C(C)(C)C)CC2)c1 (centres unmarked) [Compound I-205],≥ 100000,≥ 100000,2.9,17
CC(C)(C)S(=O)(=O)NC1CCC(C(=O)Nc2ccc(C(F)(F)F)cc2)CC1 (centres unmarked) [Compound I-212],≥ 100000,≥ 100000,0.67,7.5
CC(C)S(=O)(=O)NCCCCC(=O)Nc1ccc(N2C[C@@H](C)O[C@@H](C)C2)cc1 [Ia-3],≥ 100000,≥ 100000,9.2,150
C[C@@H]1CN(c2ccc(NC(=O)CCCCNS(=O)(=O)C(C)(C)C)cc2)C[C@H](C)O1 [Ia-5],≥ 100000,≥ 100000,1.6,43
CC(C)S(=O)(=O)NC1CCC(C(=O)Nc2ccc(N3C[C@@H](C)O[C@@H](C)C3)cc2)CC1 (some centres unmarked) [Ia-6],≥ 100000,≥ 100000,2.4,23
CCC(C)c1ccc(NC(=O)C2CCC(NS(=O)(=O)C(C)(C)C)CC2)cc1 (centres unmarked) [Ia-12],≥ 100000,≥ 100000,0.94,5.5
COc1ccc(NC(=O)C2CCC(NS(=O)(=O)C(C)(C)C)CC2)cc1 (centres unmarked) [Ia-16],≥ 100000,≥ 100000,0.1,
CC(C)(C)S(=O)(=O)NC1CCC(C(=O)Nc2ccc(OC(F)(F)F)cc2)CC1 (centres unmarked) [Ia-17],≥ 100000,≥ 100000,0.1,1.9
CC(C)(C)S(=O)(=O)NC1CCC(C(=O)Nc2cccc(F)c2)CC1 (centres unmarked) [Ia-20],≥ 100000,≥ 100000,4.9,100
